# Entries after “also recorded” stand apart in the source; their conditions may differ.
# Assays:
# [1] = Microsomal stability, human; format: in vitro ADME; details: triplicates; for Microsomal stability Rem. at 45 min / Microsomal stability T1/2: 0.5 mg/ml human microsomes, 5uM; for microsomal CLint at 5 µM / half-life at 5 µM: pooled liver microsomes, pH 7.4, 0.5 mg/ml human microsomes; for half-life at 5 µM: read-out: Microsomal stability T1/2
# From the text: 50% methanol. The samples were then transferred to ECHO® -compatible 384-well plates and the amount of analytes were quantified by the ECHO -MS® System (Sciex) where acoustic droplet ejection module is coupled with Sciex 6500® triple quadrupole mass spectrometer operating with an electrospray ionization source. Spectrometer was run in the multiple reaction monitoring (MRM) mode. When necessary, the processed samples were further diluted in 50% methanol to fit in the calibration range. Calibration curves of the compounds in 50% methanol were measured alongside the samples within the same run. […]
# 3.4. Microsomal stability […]
# The reactions were […]
# terminated by the addition of four volumes of ice-cold methanol, mixed vigorously and left at -20 °C for 1 h. After that, the samples were centrifuged and the supernatants were analyzed by means of ECHO-MS® System (Sciex, Framingham, MA, USA). Zero time points were prepared by adding ice-cold methanol to the mixture of compound with cofactors prior to the addition of microsomes. The microsomal half-lives (t1/2) were calculated using the equation t1/2=0.693/k, where k is the slope found in the linear fit of the natural logarithm of the fraction remaining of the parent compound vs. incubation time. Intrinsic clearance (CLint) was calculated using the following formula: CLint = V * ln2 /t1/2, where V = incubation volume per milligram of microsomal protein (µL/mg) and t1/2 = microsomal half-life. […]
# 3.6. Caco-2 permeability assay
# Transepithelial bi-directional transport of tested compounds (5 µM, pH 7.4/7.4) across the Caco-2 monolayers was studied using the BD BioCoat HTS Caco -2 assay system (BD Biosciences, Bedford, MA) as described in detail elsewhere.17 Aliquots were collected from the donor and acceptor compartment at the end of transport period (3 h), integrity of monolayers were verified using Lucifer Yellow dye and the compounds were quantified using LC-MS/MS (Sciex 6500® triple quadrupole). The apparent permeability coefficient (Papp) was calculated from the following equation: Papp = (dQ / dt) / C0 * A, where dQ/dt is the rate of absorption of the drug across the cells, C0 is the donor compartment concentration at time zero, and A is the area of the monolayer. Efflux ratio was expressed as (Papp B-A) / (Papp A-B). Recovery (%) was determined as (total compound mass in donor and receiver compartments at the end of the incubation / initial compound mass in the donor compartment) x 100.
# [2] = molecular target: SARS-CoV-2 nsp14 7-N MTase (Severe acute respiratory syndrome coronavirus 2, UniProt P0DTD1); assay: biochemical; details: Echo MS assay, 20 nM nsp14, 4 μM SAM, 4 μM GpppA, duplicates
# in vitro = details: human
# SARS-CoV-2 = assay: microbe, parasite or virus in culture; format: cell-based; details: Severe acute respiratory syndrome coronavirus 2, Vero C1008, 72 h; VeroE6 cells, MOI~0.03, 3 days incubation, CPE by XTT; read-out: EC50 (anti-SARS-CoV-2 activity)
# [3] = molecular target: T1, SARS-CoV-2 nsp10-nsp16 complex (Severe acute respiratory syndrome coronavirus 2, UniProt P0DTD1); format: biochemical; details: tested at 1 μM by SPA assay, duplicate
# T1 construct: Nsp10-nsp16 reactions contained 100 nM nsp10-nsp16 complex
# CCRF-CEM cells = assay: Steady-state intracellular uptake in CCRF-CEM cells; format: in vitro ADME; details: 60 min incubation, 50 μM at t = 0
# From the text: (§1) While an enzymatic MTase assay represents a valuable fast screening platform providing the information that can be directly used for SAR analyses, it is not fully predictive for the compounds’ activity in whole cells. In order to verify the ability of the compounds to reach the intracellular compartment, we measured the steady-state accumulation of representative compounds in intact CCRF-CEM, VERO-E6, and Calu-3 cells (Tables 3 and S2). […] Compound 12q was almost completely cleared from the medium after 60 min incubation with the cells rendering it among the most permeable compounds of the series based on Kp values. It should be noted that the apparent intracellular concentration of the compounds may be biased by their potential metabolism. Therefore, we decided to subject the selected derivatives to in vitro stability studies. […]
# (§2) 3.3. Intracellular Uptake
# (§3) Steady-state cellular uptake was measured in CCRF-CEM cells (ATCC, CRL-119), VERO-E6 cells (ATCC, CRL-1586) and Calu-3 cells (HTB-55), respectively. Suspension cells (CCRF-CEM) were treated as follows: Prior to the experiment, cells were washed by centrifugation (250 x g, 5 min) in prewarmed (37 °C) serum-free RPMI medium and resuspended in the same vehicle to a concentration of 2 x 10^7 cells per mL. The cell suspension was distributed into the microtubes in 500 μL aliquots (10^7 cells), and the uptake process was initiated by the addition of 2.5 μL of the 10 mM DMSO solutions of the compounds (50 μM final conc.). Samples were incubated for 60 min at 37 °C in a CO 2 incubator using a rotary stirrer. The uptake was terminated by centrifugation at 900 x g for 5 min, at +4 °C. The medium was stored at −20 °C for later analysis of the extracellular concentration of the compounds. The cells were washed two times with 1 mL PBS (900 x g, 5 min, +4 °C), and also stored at −20 °C for subsequent analysis of the intracellular concentration of the compounds. At the day of the analysis, both media and the pelleted cells were quickly thawed. The cell pellets were extracted with 200 μL of ice-cold methanol by vigorous shaking, further diluted 1:1 with water and centrifuged at 20 000 x g for 10 min. As for the media samples, 10 μL aliquots were extracted with 990 μL of 50% methanol. The samples were then transferred to ECHO® -compatible 384-well plates and the amount of analytes were quantified by the ECHO -MS® System (Sciex) where acoustic droplet ejection module is coupled with Sciex 6500® triple quadrupole mass spectrometer operating with an electrospray ionization source. Spectrometer was run in the multiple reaction monitoring (MRM) mode. When necessary, the processed samples were further diluted in 50% methanol to fit in the calibration range. Calibration curves of the compounds in 50% methanol were measured alongside the samples within the same run. The ra tio between the total compound concentration in the cells and compound concentration in the medium (K p) at t=60 min was calculated according to: Kp = (Acell / Vcell) / Cmedium, where Acell is the amount of compound in the cell lysate, Vcell is the CCRF-CEM cell volume (3.38 μL/10^7 cells)16 and Cmedium is the compound concentration in the medium sample after correcting for sample dilution. Experiments were performed in duplicates. […]
# [4] = as above; format: in vitro ADME; details: human, CCRF-CEM cells, 60 min incubation, 50 μM at t = 0, read-out: Kp (intracellular accumulation ratio IC/EC)
# From the text: as §1, §2, §3
# [5] = system: 6 human methyltransferases (PRMT6, SUV39H1, SUV39H2, SETDB1, SETD7, and MLL1); format: biochemical; details: tested at 1 μM by SPA assay, duplicate
Compound,Microsomal stability Rem. at 45 min [1] [%],microsomal CLint at 5 µM [1] [µL/min/mg],half-life at 5 µM [1] [min],IC50 [2] [µM],CC50 at 3 days (in vitro) [µM],EC50 (SARS-CoV-2) [µM],Selectivity against SARS-CoV-2 nsp10-nsp16 complex [3],EC (extracellular concentration in the media at t = 60 min) ± sd (CCRF-CEM cells) [µM],"Kp at 1 h, 50 µM [4]",Selectivity against 6 human methyltransferases [5],Microsomal stability T1/2 [1],IC (intracellular concentration in the cells at t = 60 min) ± sd (CCRF-CEM cells)
COc1ccc(S(=O)(=O)N(C)C[C@H]2O[C@@H](n3cc(C#Cc4cccnc4)c4c(N)ncnc43)[C@H](O)[C@@H]2O)cc1C#N [Compound 12s],55.9 ± 4.7,27.1 ± 2,53.7 ± 2.7,0.021 ± 0.003,> 100,> 100,selective,15 ± 3,604,selective,–,–
CCN(C[C@H]1O[C@@H](n2cc(C#Cc3cccnc3)c3c(N)ncnc32)[C@H](O)[C@@H]1O)S(=O)(=O)c1ccc(OC)c(C#N)c1 [Compound 12l],78.6 ± 1.1,11.2 ± 1.5,113 ± 3.5,0.038 ± 0.0059,> 100,> 100,–,29 ± 0,163,–,–,–
CCN(C[C@H]1O[C@@H](n2cc(C#Cc3cnc4ccccc4c3)c3c(N)ncnc32)[C@H](O)[C@@H]1O)S(=O)(=O)c1ccc(OC)c(C#N)c1 [Compound 12e],60.2 ± 3.5,19.6 ± 6.1,91.3 ± 12.2,0.028 ± 0.005,> 100,> 100,–,0.2 ± 0.0,–,–,–,–
COc1ccc(S(=O)(=O)N(C)C[C@H]2O[C@@H](n3cc(C#Cc4ccc(C(N)=O)cc4)c4c(N)ncnc43)[C@H](O)[C@@H]2O)cc1C#N [Compound 12r],83.3 ± 2.6,–,–,0.023 ± 0.0037,> 100,> 100,selective,12 ± 6,897,selective,Stable; also recorded: excellent stability,"10,708 ± 358 μM"
CCN(C[C@H]1O[C@@H](n2cc(C#Cc3ccc(C(N)=O)cc3)c3c(N)ncnc32)[C@H](O)[C@@H]1O)S(=O)(=O)c1ccc(OC)c(C#N)c1 [Compound 12o],30.5 ± 5.3,53.8 ± 5.8,26.2 ± 3.4,0.049 ± 0.0062,> 100,> 100,–,13 ± 3,694,–,–,–
CCN(C[C@H]1O[C@@H](n2cc(C#Cc3ccc(N)nc3)c3c(N)ncnc32)[C@H](O)[C@@H]1O)S(=O)(=O)c1ccc(OC)c(C#N)c1 [Compound 12h],47.2 ± 3.5,34.9 ± 4,38 ± 3.7,0.046 ± 0.0058,> 100,> 100,–,14 ± 1,480,–,–,–
CCN(C[C@H]1O[C@@H](n2cc(C#Cc3nc4ccccc4[nH]3)c3c(N)ncnc32)[C@H](O)[C@@H]1O)S(=O)(=O)c1ccc(OC)c(C#N)c1 [Compound 12a],18.5 ± 4.0,77.3 ± 10.3,17.3 ± 2.2,0.037 ± 0.0065,> 100,> 100,–,34 ± 0,188,–,–,–
COc1ccc(S(=O)(=O)N(C)C[C@H]2O[C@@H](n3cc(C#Cc4cnc5ccccc5c4)c4c(N)ncnc43)[C@H](O)[C@@H]2O)cc1C#N [Compound 12q],105.0 ± 3.9,–,–,0.019 ± 0.0025,> 100,> 100,selective,0.6 ± 0.1,5320,selective,Stable; also recorded: excellent stability,–

# From paper PMC10398685 (ACS Omega, 2023)
